Measured values taken from patent US12441722B2, “Therapeutic agents and methods of treatment” (University of Florida Research Foundation, Incorporated, priority 2020, dated 2025).

Test system: MOLT-4
Assay: Cell viability assay (tetrazolium-based MTS) in MOLT4 cells
Details: MOLT4 acute lymphoblastic leukemia cells, 48 h incubation
Experimental: Cancer cells from acute lymphoblastic leukemia (MOLT4) were incubated with increasing concentrations of compounds of Examples 1-9 for 48 h. Cell viability was measured by tetrazolium-based MTS assay. 5×10^4 to 1×10^5 suspension cells or 3×10^3 to 5×10^3 adherent cells were seeded and treated in 96-well plates for 48 h. The EC50 values of individual agents were calculated with GraphPad Prism.

SMILES | EC50 [nM]
Cc1c(-c2ccc(N3CCc4cccc(C(=O)Nc5nc6ccccc6s5)c4C3)nc2C(=O)NCCOCCOCCOCC#Cc2ccc3c(c2)C(=O)N(C2CCC(=O)NC2=O)C3=O)cnn1CC12CC3CC(CC(C3)C1)C2 (stereo not shown) [degrader #27, 2-(5-(1-(adamantan-1-ylmethyl)-5-methyl-1H-pyrazol-4-yl)-6-((2-(2-(2-((3-(2-(2,6-dioxopiperidin-3-yl)-1,3-dioxoisoindolin-5-yl)prop-2-yn-1-yl)oxy)ethoxy)ethoxy)ethyl)carbamoyl)pyridin-2-yl)-N-(benzo[d]thiazol-2-yl)-1,2,3,4-tetrahydroisocuinoline-8-carboxamnide] | 10 to 100
Cc1c(-c2ccc(N3CCc4cccc(C(=O)Nc5nc6ccccc6s5)c4C3)nc2C(=O)NCCOCCOCCOCC#Cc2ccc3c(c2)CN(C2CCC(=O)NC2=O)C3=O)cnn1CC12CC3CC(CC(C3)C1)C2 (stereo not shown) [degrader #29, 2-(5-(1-(adamantan-1-ylmethyl)-5-methyl-1H-pyrazol-4-yl)-6-((2-(2-(2-((3-(2-(2,6-dioxopiperidin-3-yl)-1-oxoisoindolin-5-yl)prop-2-yn-1-yl)oxy)ethoxy)ethoxy)ethyl)carbamoyl)pyridin-2-yl)-N-(benzo[d]thiazol-2-yl)-1,2,3,4-tetrahydroisoguinoline-8-carboxamide] | < 10
Cc1c(-c2ccc(N3CCc4cccc(C(=O)Nc5nc6ccccc6s5)c4C3)nc2C(=O)NCCOCCOCCOCCCc2ccc3c(c2)CN(C2CCC(=O)NC2=O)C3=O)cnn1CC12CC3CC(CC(C3)C1)C2 (stereo not shown) [degrader #33, 2-(5-(1-(adamantan-1-ylmethyl)-5-methyl-1H-pyrazol-4-yl)-6-((2-(2-(2-(3-(2-(2,6-dioxopiperidin-3-yl)-1-oxoisoindolin-5-yl)propoxy)ethoxy)ethoxy)ethyl)carbamoyl)pyridin-2-yl)-N-(benzo[d]thiazol-2-yl) 1,2,3,4-tetrahydroisociuinoline-8-carboxamide] | < 10
Cc1c(-c2ccc(N3CCc4cccc(C(=O)Nc5nc6ccccc6s5)c4C3)nc2C(=O)O)cnn1CC12CC3CC(C1)CC(C(=O)NCCCCNc1cccc4c1C(=O)N(C1CCC(=O)NC1=O)C4=O)(C3)C2 (stereo not shown) [degrader #34, 6-(8-(benzo[d]thiazol-2-ylcarbamoyl)-3,4-dihydroisoquinolin-2(1H)-yl)-3-(1-(((1r,3r)-3-((4-((2-(2,6-dioxopiperidin-3-yl)-1,3-dioxoisoindolin-4-yl)amino)butyl)carbamoyl)adamantan-1-yl)methyl)-5-methyl-1H-pyrazol-4-yl)picolinic acid] | 10 to 100
Cc1c(-c2ccc(N3CCc4cccc(C(=O)Nc5nc6ccccc6s5)c4C3)nc2C(=O)O)cnn1CC12CC3CC(C1)CC(C(=O)NCCOCCNc1cccc4c1C(=O)N(C1CCC(=O)NC1=O)C4=O)(C3)C2 (stereo not shown) [degrader #39, 6-(8-(benzo[d]thiazol-2-ylcarbamoyl)-3,4-dihydroisoquinolin-2(1H)-yl)-3-(1-(((1r,3r)-3-((2-(2-((2-(2,6-dioxopiperidin-3-yl)-1,3-dioxoisoindolin-4-yl)amino)ethoxy)ethyl)carbamoyl)adamantan-1-yl)methyl)-5-methyl-1H-pyrazol-4-yl)picolinic acid] | 10 to 100
Cc1c(-c2ccc(N3CCc4cccc(C(=O)Nc5nc6ccccc6s5)c4C3)nc2C(=O)O)cnn1CC12CC3CC(C1)CC(C(=O)NCCOCCOCCOCCNc1cccc4c1C(=O)N(C1CCC(=O)NC1=O)C4=O)(C3)C2 (stereo not shown) [degrader #40, 6-(8-(benzo[d]thiazol-2-ylcarbamoyl)-3,4-dihydroisoquinolin-2(1H)-yl)-3-(1-(((1r,3r)-3-((2-(2-(2-(2-((2-(2,6-dioxopiperidin-3-yl)-1,3-dioxoisoindolin-4-yl)amino)ethoxy)ethoxy)ethoxy)ethyl)carbamoyl)adamantan-1-yl)methyl)-5-methyl-1H-pyrazol-4-yl)picolinic acid] | 10 to 100
Cc1ncsc1-c1ccc([C@H](C)NC(=O)[C@@H]2C[C@@H](O)CN2C(=O)[C@@H](NC(=O)CCNC(=O)C23CC4CC(CC(Cn5ncc(-c6ccc(N7CCc8cccc(C(=O)Nc9nc%10ccccc%10s9)c8C7)nc6C(=O)O)c5C)(C4)C2)C3)C(C)(C)C)cc1 [degrader #41, 6-(8-(benzo[d]thiazol-2-ylcarbamoyl)-3,4-dihydroisoquinolin-2(1H)-yl)-3-(1-(((1S,3r)-3-((3-(((S)-1-((2S,4R)-4-hydroxy-2-(((S)-1-(4-(4-methylthiazol-5-yl)phenyl)ethyl)carbamoyl)pyrrolidin-1-yl)-3,3-dimethyl-1-oxobutan-2-yl)amino)-3-oxopropyl)carbamoyl)adamantan-1-yl)methyl)-5-methyl-1H-pyrazol-4-yl)picolinic acid] | > 1000
Cc1ncsc1-c1ccc([C@H](C)NC(=O)[C@@H]2C[C@@H](O)CN2C(=O)[C@@H](NC(=O)CCCCNC(=O)C23CC4CC(CC(Cn5ncc(-c6ccc(N7CCc8cccc(C(=O)Nc9nc%10ccccc%10s9)c8C7)nc6C(=O)O)c5C)(C4)C2)C3)C(C)(C)C)cc1 [degrader #42, 6-(8-(benzo[d]thiazol-2-ylcarbamoyl)-3,4-dihydroisoquinolin-2(1H)-yl)-3-(1-(((1S,3r)-3-((5-(((S)-1-((2S,4R)-4-hydroxy-2-(((S)-1-(4-(4-methylthiazol-5-yl)phenyl)ethyl)carbamoyl)pyrrolidin-1-yl)-3,3-dimethyl-1-oxobutan-2-yl)amino)-5-oxopentyl)carbamoyl)adamantan-1-yl)methyl)-5-methyl-1H-pyrazol-4-yl)picolinic acid] | > 1000

The remaining lines, values ahead:

EC50 [nM] | SMILES
< 10 | Cc1c(-c2ccc(N3CCc4cccc(C(=O)Nc5nc6ccccc6s5)c4C3)nc2C(=O)NCCOCCOCCOCC#Cc2cccc3c2CN(C2CCC(=O)NC2=O)C3=O)cnn1CC12CC3CC(CC(C3)C1)C2 (stereo not shown) [degrader #28, 2-(5-(1-(adamantan-1-ylmethyl)-5-methyl-1H-pyrazol-4-yl)-6-((2-(2-(2-((3-(2-(2,6-dioxopiperidin-3-yl)-1-oxoisoindolin-4-yl)prop-2-yn-1-yl)oxy)ethoxy)ethoxy)ethyl)carbamoyl)pyridin-2-yl)-N-(benzo[d]thiazol-2-yl)-1,2,3,4-tetrahydroisoguinoline-8-carboxamide]
< 10 | Cc1c(-c2ccc(N3CCc4cccc(C(=O)Nc5nc6ccccc6s5)c4C3)nc2C(=O)NCCOCCOCCOCCCc2cccc3c2C(=O)N(C2CCC(=O)NC2=O)C3=O)cnn1CC12CC3CC(CC(C3)C1)C2 (stereo not shown) [degrader #30, 2-(5-(1-(adamantan-1-ylmethyl)-5-methyl-1H-pyrazol-4-yl)-6-((2-(2-(2-(3-(2-(2,6-dioxopiperidin-3-yl)-1,3-dioxoisoindolin-4-yl)propoxy)ethoxy)ethoxy)ethyl)carbamoyl)pyridin-2-yl)-N-(benzo[d]thiazol-2-yl)-1,2,3,4-tetrahydroisociuinoline-8-carboxamide]
< 10 | Cc1c(-c2ccc(N3CCc4cccc(C(=O)Nc5nc6ccccc6s5)c4C3)nc2C(=O)NCCOCCOCCOCCCc2ccc3c(c2)C(=O)N(C2CCC(=O)NC2=O)C3=O)cnn1CC12CC3CC(CC(C3)C1)C2 (stereo not shown) [degrader #31, 2-(5-(1-(adamantan-1-ylmethyl)-5-methyl-1H-pyrazol-4-yl)-6-((2-(2-(2-(3-(2-(2,6-dioxopiperidin-3-yl)-1,3-dioxoisoindolin-5-yl)propoxy)ethoxy)ethoxy)ethyl)carbamoyl)pyridin-2-yl)-N-(benzo[d]thiazol-2-yl)-1,2,3,4-tetrahydroisociuinoline-8-carboxamide]
< 10 | Cc1c(-c2ccc(N3CCc4cccc(C(=O)Nc5nc6ccccc6s5)c4C3)nc2C(=O)NCCOCCOCCOCCCc2cccc3c2CN(C2CCC(=O)NC2=O)C3=O)cnn1CC12CC3CC(CC(C3)C1)C2 (stereo not shown) [degrader #32]
10 to 100 | Cc1c(-c2ccc(N3CCc4cccc(C(=O)Nc5nc6ccccc6s5)c4C3)nc2C(=O)O)cnn1CC12CC3CC(C1)CC(C(=O)NCCCCCCNc1cccc4c1C(=O)N(C1CCC(=O)NC1=O)C4=O)(C3)C2 (stereo not shown) [degrader #35, 6-(8-(benzo[d]thiazol-2-ylcarbamoyl)-3,4-dihydroisoquinolin-2(1H)-yl)-3-(1-(((1r,3r)-3-((6-((2-(2,6-dioxopiperidin-3-yl)-1,3-dioxoisoindolin-4-yl)amino)hexyl)carbamoyl)adamantan-1-yl)methyl)-5-methyl-1H-pyrazol-4-yl)picolinic acid]
< 10 | Cc1c(-c2ccc(N3CCc4cccc(C(=O)Nc5nc6ccccc6s5)c4C3)nc2C(=O)O)cnn1CC12CC3CC(C1)CC(C(=O)NCCCCCCCCNc1cccc4c1C(=O)N(C1CCC(=O)NC1=O)C4=O)(C3)C2 (stereo not shown) [degrader #36, 6-(8-(benzo[d]thiazol-2-ylcarbamoyl)-3,4-dihydroisoquinolin-2(1H)-yl)-3-(1-(((1r,3r)-3-((8-((2-(2,6-dioxopiperidin-3-yl)-1,3-dioxoisoindolin-4-yl)amino)octyl)carbamoyl)adamantan-1-yl)methyl)-5-methyl-1H-pyrazol-4-yl)picolinic acid]
10 to 100 | Cc1c(-c2ccc(N3CCc4cccc(C(=O)Nc5nc6ccccc6s5)c4C3)nc2C(=O)O)cnn1CC12CC3CC(C1)CC(C(=O)NCCCCCCCCCCNc1cccc4c1C(=O)N(C1CCC(=O)NC1=O)C4=O)(C3)C2 (stereo not shown) [degrader #37, 6-(8-(benzo[d]thiazol-2-ylcarbamoyl)-3,4-dihydroisoquinolin-2(1H)-yl)-3-(1-(((1r,3r)-3-((10-((2-(2,6-dioxopiperidin-3-yl)-1,3-dioxoisoindolin-4-yl)amino)decyl)carbamoyl)adamantan-1-yl)methyl)-5-methyl-1H-pyrazol-4-yl)picolinic acid]
10 to 100 | Cc1c(-c2ccc(N3CCc4cccc(C(=O)Nc5nc6ccccc6s5)c4C3)nc2C(=O)O)cnn1CC12CC3CC(C1)CC(C(=O)NCCCCCCCCCCCCNc1cccc4c1C(=O)N(C1CCC(=O)NC1=O)C4=O)(C3)C2 (stereo not shown) [degrader #38, 6-(8-(benzo[d]thiazol-2-ylcarbamoyl)-3,4-dihydroisoquinolin-2(1H)-yl)-3-(1-(((1r,3r)-3-((12-((2-(2,6-dioxopiperidin-3-yl)-1,3-dioxoisoindolin-4-yl)amino)dodecyl)carbamoyl)adamantan-1-yl)methyl)-5-methyl-1H-pyrazol-4-yl)picolinic acid]
